Results: ChEMBL document CHEMBL5321253, “Discovery of novel pyridinones as MGAT2 inhibitors for the treatment of metabolic disorders” (Bioorg Med Chem Lett, 2023)

Columns and labels:
in vitro [1] = conditions: mouse, liver microsomes
in vitro [2] = conditions: human, liver microsomes

## Cc1ccc(-c2cc(-c3ccc(OCCCC(F)(F)F)cc3)[nH]c(=O)c2NC(=O)c2ccno2)cc1
In vitro [1]
  remaining at 10 min: 27%
In vitro [2]
  remaining at 10 min: 64%
